Results: patent publication US10273279B2, “Protease activated receptor-1 (PAR1) derived cytoprotective polypeptides and related methods” (THE SCRIPPS RESEARCH INSTITUTE, priority 2011, dated 2019)

What was measured:
SEAP-PAR1 = target: T1, SEAP-PAR1 (Homo sapiens, UniProt P25116); experiment: SEAP-PAR1 cleavage reporter on transfected HEK-293 cells (SEAP release); assay type: cell-based; settings: cells containing wild-type EPCR
T1 construct: we created a full-length PAR-1 construct linked at the N-terminus to an alkaline phosphatase reporter group (SEAP); expressed in transfected cells
T1 sequence (P25116 22-425): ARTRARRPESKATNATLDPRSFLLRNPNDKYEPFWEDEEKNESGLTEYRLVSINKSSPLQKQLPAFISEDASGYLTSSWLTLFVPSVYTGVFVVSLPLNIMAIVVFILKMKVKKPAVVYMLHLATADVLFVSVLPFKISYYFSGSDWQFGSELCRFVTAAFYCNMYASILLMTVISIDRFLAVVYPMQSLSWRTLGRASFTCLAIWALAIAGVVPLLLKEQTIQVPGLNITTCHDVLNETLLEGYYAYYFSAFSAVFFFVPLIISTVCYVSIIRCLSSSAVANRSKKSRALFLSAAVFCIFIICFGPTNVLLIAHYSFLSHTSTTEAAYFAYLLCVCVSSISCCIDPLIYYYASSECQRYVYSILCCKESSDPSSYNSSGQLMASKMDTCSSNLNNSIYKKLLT
Source text: To facilitate analysis of APC-mediated PAR-1 activation, we created a full-length PAR-1 construct linked at the N-terminus to an alkaline phosphatase reporter group (SEAP). Selection of stable cell lines expressing both endothelial protein C receptor (EPCR) (wt or E86A) and SEAP-PAR1 allowed for a reliable and reproducible analysis of EPCR-dependent PAR-1 activation by APC. Mass-spec analysis of cleavage fragments generated by APC of a synthetic PAR-1 N-terminal tail peptide (TR33-62) identified both Arg^41 and Arg^46 as potential cleavage sites for APC proteolysis, as noted above. […] R41Q-SEAP-PAR1 was cleaved by APC in the presence of EPCR. This surprising result was also obtained for R41A-SEAP PAR1.
2009; 113:5970-5978. SEAP-PAR1, either in the presence or absence of wt-EPCR, were transfected into HEK-293 cells to obtain stable cells expressing SEAP-PAR1 or wt-EPCR/SEAP-PAR1. Mutations in SEAP-PAR1 were introduced using the Quickchange method (Agilent). Cells were grown in 96-wells plates to confluency in Dulbeco's modified Eagle media (DMEM): Ham's F-12 (Invitrogen) supplemented with penicillin-streptomycin-glutamine (PSG) (Gibco) and 10% fetal bovine serum (Omega) in a humidified atmosphere at 37° C. and 5% CO2 Cells were washed with Hank's balanced salt solution (HBSS; Invitrogen) supplemented with 1.3 mM CaCl2, 0.6 mM MgCl2 and 0.1% endotoxin free BSA (Calbiochem) and incubated with APC. After 60 min, SEAP release was determined using 1-step PNPP (Pierce). Values were corrected for background activity derived from the same cells incubated in the absence of APC and expressed as a percentage of total SEAP available on the cell membrane.

[1] = target: T2, synthetic PAR1 peptide (TR33-62) (Homo sapiens, UniProt P25116); experiment: Cleavage of synthetic PAR1 peptide TR33-62 by APC or thrombin, reverse phase HPLC and MALDI-TOF; assay type: biochemical; settings: APC 500 nM or thrombin 5 nM, TR33-62 100 μM, HBS pH 7.4
T2 construct: purchased Biosynthesis; host or cells: chemical synthesis
T2 sequence (P25116 33-62 limits assumed): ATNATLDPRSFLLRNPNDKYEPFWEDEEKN
Source text: Samples were subjected to reverse phase HPLC on a C18 column while the eluent was monitored at 214 nm during a 0%-67% gradient of acetonitrile in water containing 0.1% trifluoroacetic acid. Peptide fragments were collected and subjected to MALDI-TOF (Scripps mass spectrometry core facility) analysis.

[2] = system: VEGF-induced vascular leakage in SKH1 hairless mice; experiment: In vivo vascular permeability assay (modified Miles assay, VEGF-induced Evans blue extravasation in skin); set-up: species or system mouse; settings: for decrease in vascular leakage compared to PBS control: 125 μg peptide i.v. retro-orbital 5 min before s.c. VEGF165, Evans blue at 700 nm; for vascular leakage in the absence of VEGF: BSA vehicle sites, 125 μg peptide i.v.
Description: To probe whether TR47-66 could induce vascular protective effects in vivo, a modification of the modified Miles assay was used in which vascular permeability is measured by the extravasation of Evans blue dye in the skin induced by local subcutaneous injection of vascular endothelial growth factor (VEGF)165. Immunocompetent SKH1 hairless mice were used to avoid the need for hair removal that often can result in artifactual leakage due to inflammation of the skin. Evans blue extravasation in the skin was quantified using the Odyssey near-infrared fluorescent imager at 700 nm. TR47-66 peptide or the control scrTR47 peptide were injected i.v. in the retro-orbital sinus 5 min before local subcutaneous injection of recombinant murine VEGF or BSA control and 30 min after i.v. administration of Evans blue. In the absence of TR47-66 (PBS control), VEGF induced clearly distinguishable areas of Evans blue extravasation, whereas after injection of BSA vehicle control only the needle points marking the injection site could be observed. Quantification of Evans blue extravasation by near infrared fluorescence at 700 nm eliminated the time consuming need for Evans blue extraction from punch biopsy and provided reliable and reproducible results. […] Thus, like APC, the TR47 peptide causes activation of Rac1, stabilizes endothelial barriers in vitro, and in vivo can markedly reduce vascular leakage. The study was approved by the Institutional Animal Care and Use Committee of The Scripps Research Institute and complied with National Institutes of Health guidelines. SK1H1-E hairless male (6 to 8 weeks old) were from Charles River Labs (Wilmington, Mass.). Vascular permeability was determined using a known VEGF-induced leakage model (Sanna et al., Nat. Chem. Biol. 2006; 2(8):434-441; and Miles et al., J Physiol 1952; 118(2):228-257) with some modifications. Briefly, 100 μL of a sterile-filtered solution containing 0.5% (w/v) Evans blue (Sigma) in 0.9% NaCl (Sigma) was injected in isofluran-anesthetized mice. After 30 min, 50 μL of peptides (125 μg; TR47 or scrTR47) or PBS were injected intravenously in the retro-orbital sinus of mice anesthetized with Ketamin-Xylazin (100 and 10 mg/kg, respectively). After 5 min, mice received subcutaneously 15 μL of 75 ng/injection recombinant mouse VEGF165 (BioVision, Milpitas, Calif.) in 0.1% BSA-PBS (3 sites on the right side of the abdomen) or vehicle (2 sites on the left side). After 30 min, mice were sacrificed, photographed, and Evans blue extravasation in the skin was determined using the Odyssey Imager (LI-COR Biosciences, Lincoln, Nebr.) in the 700 nm channel with 4 mm offset. Quantification of the intensity of the Evans blue dye signal was done using the Odyssey Application Software version 3.0. […]

| cleavage of wt-PAR1 (SEAP-PAR1) (SEAP-PAR1) | Substance | cleavage sites in TR33-62 peptide [1] | decrease in vascular leakage compared to PBS control [2] | vascular leakage in the absence of VEGF [2] |
| --- | --- | --- | --- | --- |
| cleaved | APC: Activated Protein C, serine protease with anticoagulant and cytoprotective cell signaling activities | cleaves this PAR1 peptide at Arg^46 as well as at Arg^41 | – | – |
| – | GDENENEKPNWYELKEPDSF (scrambled sequence) [scr-TR47-66, control scrambled TR47-66 peptide containing scrambled residues 47-66, reference compound] | – | indiscriminate from PBS control | Neither TR47-66 nor scrTR47 affected vascular leakage |
| – | NPNDKYEPFWEDEEKNESGL (listed as Homo sapiens) [TR47-66] | – | 45% | Neither TR47-66 nor scrTR47 affected vascular leakage |
| cleaved | thrombin | cleavage at Arg^41 | – | – |
